Common to all, as to type: biochemical
The target of experiment [1] is T1, PARP-1 [poly(ADP-ribose) polymerase 1] (Homo sapiens, UniProt P09874). Put plainly: […]NAD+ automodification assay, single concentration of […].
Experiment [2] deals with T1, PARP-1 [poly(ADP-ribose) polymerase 1]. Put plainly: […]NAD+ automodification assay, % inhibition at […]. As to conditions: read-out: % reduction at 1 mM.
Experiment [3] shares this target. The experiment can be described thus: Michaelis–Menten kinetics of ADP-ribose incorporation.
For experiment [4] the target is unchanged. The experiment can be described thus: […]NAD+ automodification assay with purified PARP-1.

pKi: −log10 of the molar value.

T1 sequence (P09874 2-1014): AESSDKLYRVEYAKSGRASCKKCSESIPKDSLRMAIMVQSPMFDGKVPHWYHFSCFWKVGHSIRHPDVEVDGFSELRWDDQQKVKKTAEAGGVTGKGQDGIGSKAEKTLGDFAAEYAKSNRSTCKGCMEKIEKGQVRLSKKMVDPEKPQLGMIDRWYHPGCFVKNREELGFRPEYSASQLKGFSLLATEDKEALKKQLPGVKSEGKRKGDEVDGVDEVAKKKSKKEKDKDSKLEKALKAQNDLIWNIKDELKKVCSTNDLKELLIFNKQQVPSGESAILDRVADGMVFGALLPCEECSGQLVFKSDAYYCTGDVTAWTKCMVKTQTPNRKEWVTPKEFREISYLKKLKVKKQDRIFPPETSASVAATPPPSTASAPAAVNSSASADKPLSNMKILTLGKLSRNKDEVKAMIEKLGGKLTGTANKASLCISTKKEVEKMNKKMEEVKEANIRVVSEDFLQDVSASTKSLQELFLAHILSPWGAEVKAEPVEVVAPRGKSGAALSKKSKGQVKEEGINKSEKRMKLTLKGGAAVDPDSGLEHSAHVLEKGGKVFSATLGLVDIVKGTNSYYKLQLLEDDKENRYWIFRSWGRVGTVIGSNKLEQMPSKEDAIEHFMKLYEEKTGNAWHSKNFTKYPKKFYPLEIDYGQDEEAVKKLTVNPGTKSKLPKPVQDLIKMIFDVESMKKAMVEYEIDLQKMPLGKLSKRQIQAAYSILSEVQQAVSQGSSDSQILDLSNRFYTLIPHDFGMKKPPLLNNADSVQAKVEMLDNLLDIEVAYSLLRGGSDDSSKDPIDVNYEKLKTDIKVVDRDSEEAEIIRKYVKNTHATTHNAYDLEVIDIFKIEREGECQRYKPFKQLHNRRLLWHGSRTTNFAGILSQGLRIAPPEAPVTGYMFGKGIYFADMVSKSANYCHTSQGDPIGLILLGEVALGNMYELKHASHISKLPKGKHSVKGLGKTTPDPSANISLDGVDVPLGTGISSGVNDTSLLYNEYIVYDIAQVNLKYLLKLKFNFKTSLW

On to `Nc1ncnc2c1ncn2[C@@H]1O[C@H](COP(=O)(O)OP(=O)(O)OC[C@H]2OC(O)[C@H](O)[C@@H]2O)[C@@H](O)[C@H]1O` (stereo partly shown) [ADP-ribose], for which the “[32P]NAD+ automodification assay, single concentration of 50 μM” value in experiment [1] is recorded as “With the exception of ADP-ribose, other adenine derivatives only inhibited PARP-1 to a limited extent”.
As for `Nc1ncnc2c1ncn2[C@@H]1O[C@H](COP(=O)(O)OP(=O)(O)OP(=O)(O)O)[C@@H](O)[C@H]1O` [ATP], in experiment [2], the inhibition at 1000 µM is around 25%.
For `NC(=O)c1ccc[n+]([C@@H]2O[C@H](COP(=O)([O-])OP(=O)(O)OC[C@H]3O[C@@H](n4cnc5c(N)ncnc54)[C@H](O)[C@@H]3O)[C@@H](O)[C@H]2O)c1` [NAD^+], the Km in experiment [3] was in the range of 200 to 250 µM.
The compound `Nc1ncnc2c1ncn2[C@@H]1O[C@H](COP(=O)(O)O)[C@@H](OP(=O)(O)O)[C@H]1O` [pAp] gave a pKi in experiment [4] of 6.00 to 6.30.

(Values after PMC3316155 (2012).)
